Where “and” joins values, the source holds several entries; their conditions need not be identical. Identical values can stand only once.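 Assay format: 96-well plates, 48-hour exposure. The concentration for 50% growth inhibition is given as GI50. TGI is the concentration that stops growth completely.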
Tests used:
Experiment in all cases: NCI-60 cell line screen, 48 h
[1] = tested on: HOP-92 NSCLC
[2] = tested on: LOX IMVI melanoma
[3] = tested on: OVCAR-3 ovarian
[4] = tested on: RXF 393 renal
[5] = tested on: OVCAR-4 ovarian
[6] = tested on: COLO 205 colon
[7] = tested on: A549 NSCLC
[8] = tested on: HL-60(TB) leukemia
[9] = tested on: KM20L2 colon
[10] = tested on: DMS 273 small cell lung

Row | SMILES | TGI [1] | TGI [2] | TGI [3] | TGI [4] | TGI [5] | TGI [6] | TGI [7] | TGI [8] | TGI [9] | TGI [10] | GI50 [1] | GI50 [3] | GI50 [4] | GI50 [5] | GI50 [6] | GI50 [7] | GI50 [8] | GI50 [2] | GI50 [9] | GI50 [10]
1 | CCc1oc2ccccc2c1C(=O)c1cc(Br)c(O)c(Br)c1 | 64.2 µM | 55.3 µM | 43.2 µM | 35 µM | > 100 µM | 40.6 µM | > 100 µM | 33.3 µM |  |  |  |  |  |  |  |  |  |  |  | 
2 | CNS(=O)(=O)NN(C)S(=O)(=O)c1ccc(Br)cc1 |  | > 100 µM | > 100 µM | > 100 µM | > 100 µM | > 100 µM | > 100 µM | > 100 µM | > 100 µM | > 100 µM |  |  |  |  |  |  |  |  |  | 
3 | O=C(Nc1ccncc1)C(=O)c1cn(S(=O)(=O)c2ccccc2F)c2ccccc12 | 60.2 µM | > 100 µM | 6.85 µM | 9.18 µM | > 100 µM | > 100 µM | 59.8 µM |  |  |  | 2.93 µM | 0.893 µM | 2.44 µM | 3.59 µM | 23.6 µM | 13.5 µM | 0.576 µM |  |  | 
4 | CN(/N=N/c1nc(OCc2ccccc2)c2[nH]cnc2n1)C(=O)N(C)/N=N/c1nc(OCc2ccccc2)c2[nH]cnc2n1 | > 100 µM | > 100 µM | > 100 µM | > 100 µM | > 100 µM | > 100 µM | > 100 µM | > 100 µM |  |  | 29.9 µM | 34.8 µM | 79.9 µM | > 100 µM | 37.5 µM | 56 µM | 63.7 µM | 37 µM |  | 
5 | CCc1nc2ccc(Cc3ccc(C(=O)NO)cc3)cc2c(=O)n1CCc1ccccc1 | 2.98 µM | 2.5 µM | 3.85 µM | 2.3 µM | 6.09 µM | 2.55 µM | 2.99 µM | 83.1 µM |  |  | 1.36 µM | 1.15 µM | 0.741 µM | 1.25 µM | 0.871 µM | 1.15 µM | 2.25 µM | 1.16 µM |  | 
6 | CCCCC(=O)[O-].N.N.N.N.N.[Co+3].[O-][Cl+3]([O-])([O-])[O-] | > 100 µM | > 100 µM | > 100 µM |  | > 100 µM | > 100 µM | > 100 µM |  | > 100 µM | > 100 µM | > 100 µM | > 100 µM |  | > 100 µM | > 100 µM | > 100 µM |  | > 100 µM | > 100 µM | > 100 µM
7 | Cc1c(Cl)cccc1NC(=O)c1sc2nc3c(cc2c1N)CCCCCC3 | 16.1 µM | > 50 µM | 1.21 µM | 3.5 µM | 15.2 µM | > 50 µM | > 50 µM | 3.4 µM |  |  | 0.164 µM | 0.174 µM | 0.133 µM | 0.936 µM | 0.285 µM | 0.369 µM | 0.158 µM | 0.3 µM |  | 
8 | COc1ccc(C(=O)c2cc(OC)c(OC)c(OC)c2)cc1O | > 100 µM | > 100 µM | 0.0511 µM | > 100 µM | > 100 µM | 13.3 µM | > 100 µM | 0.0557 µM |  |  | 0.539 µM | 0.0207 µM | 0.0167 µM | 0.61 µM | 1.36 µM | 0.0717 µM | 0.0103 µM | 0.0114 µM |  | 
9 | COc1cccc(/C=C/C(=O)c2cc3c(N)c(C(=O)Nc4cccc(Cl)c4C)sc3nc2C)c1 | 3.16 µM | 1.45 µM | 2 µM | 1.29 µM | > 14.1 µM | 3.63 µM | > 50 µM | 2.84 µM |  |  | 1.04 µM | 0.854 µM | 0.573 µM | 1.64 µM | 1.38 µM | 1.72 µM | 0.927 µM | 0.676 µM |  | 
10 | O=C(Nc1nccs1)c1cc(C2=CC=CC([N+](=O)[O-])C=C2)nc(=S)[nH]1 (configuration not stated) | > 100 µM | > 100 µM | > 100 µM | > 100 µM |  | > 100 µM | > 100 µM | > 100 µM | > 100 µM | > 100 µM |  |  |  |  |  |  |  |  |  | 
11 | CCN(CC)C(=S)N/N=C(\C)c1ccccc1O |  | 77.4 µM | > 100 µM | > 100 µM | > 100 µM | > 100 µM | 43.4 µM | > 100 µM | 59.2 µM | > 100 µM |  |  |  |  |  |  |  |  |  | 
12 | CN(C)c1ccc(/C=C2\N=C(c3ccc(N)cc3)OC2=O)cc1 | > 100 µM | > 100 µM | > 100 µM |  | > 100 µM | > 100 µM | > 100 µM | > 100 µM | > 100 µM | > 100 µM |  |  |  |  |  |  |  |  |  | 
13 | O=C(N/N=C/c1ccc(O)cc1O)c1ccc(Nc2ccnc(C(F)(F)F)c2)cc1 | > 75.6 µM | > 100 µM | > 100 µM | 64.1 µM | > 100 µM | > 100 µM | > 100 µM | > 100 µM |  |  | 15 µM | 0.35 µM | 17.3 µM |  | 7.61 µM | > 100 µM | > 34.1 µM | 8.31 µM |  | 
14 | Cc1nc(Nc2ccc(F)c(Cl)c2)sc1C(=O)O | 2.74 µM | 2.91 µM | 4.47 µM | 3.94 µM | 9.12 µM | 3.2 µM | 3.81 µM | 8.17 µM |  |  | 0.877 µM | 1.82 µM | 1.71 µM | 1.74 µM | 1.64 µM | 1.68 µM | 3.41 µM | 1.51 µM |  | 
15 | Cc1c(CN2CCC(Nc3ncnc4sc(CC(F)(F)F)cc34)CC2)ccc2c1cc(C#N)n2Cc1cn[nH]c1 | 25.1 µM and > 25.9 µM | 2.88 µM and 7.5 µM | 24 µM | 12.9 µM and 10.5 µM | 22.3 µM | 3.7 µM and 9.53 µM | 23.3 µM | 8.87 µM |  |  | 3.81 µM and 1.09 µM | 10.4 µM | 1.94 µM and 2.74 µM | 2.2 µM and 1.77 µM | 1.64 µM and 2.05 µM | 8.31 µM and 10.1 µM | 2.74 µM and 2.83 µM | 1.35 µM and 2.36 µM |  | 
16 | CCc1ccc(CCC(=O)Nc2ncc(Cc3ccccc3)s2)o1 | > 100 µM | > 100 µM | 21.6 µM | 9.13 µM | > 100 µM | > 100 µM | > 100 µM | 4.38 µM |  |  | 18.3 µM | 2.67 µM | 2.45 µM | 27.8 µM | 2.28 µM | 4.47 µM | 1.53 µM | 6 µM |  | 
